{
  "source": "patent US20240226343A1",
  "about": "“NEUROPEPTIDE Y1 RECEPTOR (NPY1R) TARGETED THERAPEUTICS AND USES THEREOF” (RADIONETICS ONCOLOGY, INC., priority 2022, published 2024)",
  "data": [
    {"biological_target": "T1, hNPY1R (Homo sapiens, UniProt P25929)", "T1 construct": "SK-N-MC cells endogenously expressing the NPY1R receptor; endogenous in cells; host or cells: SK-N-MC cells (crude membrane fractions)", "T1 sequence (P25929 1-384)": "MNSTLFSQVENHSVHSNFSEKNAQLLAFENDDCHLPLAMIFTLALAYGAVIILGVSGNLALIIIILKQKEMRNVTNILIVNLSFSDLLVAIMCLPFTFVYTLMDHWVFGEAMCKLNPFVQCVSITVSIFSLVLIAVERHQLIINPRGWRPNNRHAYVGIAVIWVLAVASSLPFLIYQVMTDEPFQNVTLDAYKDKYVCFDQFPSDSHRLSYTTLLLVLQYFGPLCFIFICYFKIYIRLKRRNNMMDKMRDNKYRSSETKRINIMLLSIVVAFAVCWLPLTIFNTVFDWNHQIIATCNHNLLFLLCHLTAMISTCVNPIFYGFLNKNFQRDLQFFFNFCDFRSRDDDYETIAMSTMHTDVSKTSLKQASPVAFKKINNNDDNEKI", "assay": "NPY1R binding assay: SK-N-MC membranes, [125I]-Peptide YY (human) competition", "details": "data obtained after 60 minutes at 37° C.; SK-N-MC membranes; [125I]-Peptide YY 0.05 nM; read-out: hNPY1R binding Ki* †", "units": {"Ki": "nM"}, "values": [
      {"smiles": "CCC(=O)NCCNC(=O)/N=C(/N)NCCC[C@@H](NC(=O)C(c1ccccc1)c1cccc(OCCOCCOCCNC(=O)CN2CCN(CC(=O)O)CCN(CC(=O)O)CCN(CC(=O)O)CC2)c1)C(=O)NCc1ccc(O)cc1", "note": "(stereo partly drawn) [Compound 105, 2,2′,2″-(10-(2-((2-(2-(2-(3-((4R,Z)-9-amino-4-((4-hydroxybenzyl)carbamoyl)-2,11,16-trioxo-1-phenyl-3,8,10,12,15-pentaazaoctadec-9-en-1-yl)phenoxy)ethoxy)ethoxy)ethyl)amino)-2-oxoethyl)-1,4,7,10-tetraazacyclododecane-1,4,7-triyl)triacetic acid]", "Ki": "< 10"},
      {"smiles": "CCC(=O)NCCNC(=O)/N=C(/N)NCCC[C@@H](NC(=O)C(c1ccccc1)c1cccc(OCCCCNC(=O)CCC(NC(=O)CN2CCN(CC(=O)O)CCN(CC(=O)O)CCN(CC(=O)O)CC2)C(=O)O)c1)C(=O)NCc1ccc(O)cc1", "note": "(single isomer, unassigned) [Compound 110A]", "Ki": "10 to 100"},
      {"smiles": "CCC(=O)NCCNC(=O)/N=C(/N)NCCC[C@@H](NC(=O)C(c1ccccc1)c1cccc(OCCOCCOCCOCCOCCNC(=O)CN2CCN(CC(=O)O)CCN(CC(=O)O)CCN(CC(=O)O)CC2)c1)C(=O)NCc1ccc(O)cc1", "note": "(single isomer, unassigned) [Compound 101B]", "Ki": "< 10"}
    ]},
    {"biological_target": "T1, hNPY1R", "assay": "NPY1R binding assay: SK-N-MC membranes, [125I]-Peptide YY (human) competition", "details": "data obtained after 120 minutes at rt; SK-N-MC membranes; [125I]-Peptide YY; read-out: hNPY.R binding Ki* ††", "units": {"Ki": "nM"}, "values": [
      {"smiles": "CCC(=O)NCCNC(=O)/N=C(/N)NCCC[C@@H](NC(=O)C(c1ccccc1)c1ccc(NCCCNc2c(NCCNC(=O)[C@@H](CN)NC(=O)CN3CCN(CC(=O)O)CCN(CC(=O)O)CCN(CC(=O)O)CC3)c(=O)c2=O)cc1)C(=O)NCc1ccc(O)cc1", "note": "(single isomer, unassigned) [Compound 137B]", "Ki": "< 10"},
      {"smiles": "CCC(=O)NCCNC(=O)/N=C(/N)NCCC[C@@H](NC(=O)C(c1ccccc1)c1ccc(NCCCNC(=O)CCCCCNC(=O)CN2CCN(CC(=O)O)CCN(CC(=O)O)CCN(CC(=O)O)CC2)cc1)C(=O)NCc1ccc(O)cc1", "note": "(single isomer, unassigned) [Compound 154]", "Ki": "< 10"},
      {"smiles": "CCNC(=O)/N=C(/N)NCCC[C@@H](NC(=O)[C@@H](c1ccccc1)c1ccc(NCCCNC(=O)[C@H](N)CCCCNC(=O)CN2CCN(CC(=O)O)CCN(CC(=O)O)CCN(CC(=O)O)CC2)cc1)C(=O)NCc1ccc(O)cc1", "note": "(single isomer, unassigned) [Compound 144A]", "Ki": "< 10"},
      {"smiles": "CCNC(=O)/N=C(/N)NCCC[C@@H](NC(=O)C(c1ccccc1)c1ccc(NCCCNC(=O)[C@H](N)CCCNC(=O)[C@@H](Cc2ccc(-c3ccccc3)cc2)NC(=O)CN2CCN(CC(=O)O)CCN(CC(=O)O)CCN(CC(=O)O)CC2)cc1)C(=O)NCc1ccc(O)cc1", "note": "(single isomer, unassigned) [Compound 151]", "Ki": "< 10"},
      {"smiles": "CCC(=O)NCCNC(=O)/N=C(/N)NCCC[C@@H](NC(=O)C(c1ccccc1)c1ccc(NCCCNC(=O)[C@H](N)CCCCNC(=O)CN2CCN(CC(=O)O)CCN(CC(=O)O)CCN(CC(=O)O)CC2)cc1)C(=O)NCc1ccc(O)cc1", "note": "(single isomer, unassigned) [Compound 132A]", "Ki": "< 10"},
      {"smiles": "CCC(=O)NCCNC(=O)/N=C(/N)NCCC[C@@H](NC(=O)C(c1ccccc1)c1cccc(OCCCCNC(=O)[C@@H](CCCNC(=N)N)NC(=O)CCNC(=O)CN2CCN(CC(=O)O)CCN(CC(=O)O)CCN(CC(=O)O)CC2)c1)C(=O)NCc1ccc(O)cc1", "note": "(single isomer, unassigned) [Compound 141B]", "Ki": "< 10"},
      {"smiles": "CCC(=O)NCCNC(=O)/N=C(/N)NCCC[C@@H](NC(=O)C(c1ccccc1)c1ccc(NCC(=O)N(C)CCCN(C)CCCN(C)C(=O)CN2CCN(CC(=O)O)CCN(CC(=O)O)CCN(CC(=O)O)CC2)cc1)C(=O)NCc1ccc(O)cc1", "note": "(single isomer, unassigned) [Compound 139A]", "Ki": "< 10"},
      {"smiles": "CCC(=O)NCCNC(=O)/N=C(/N)NCCC[C@@H](NC(=O)C(c1ccccc1)c1ccc(NCCCNC(=O)[C@@H](CCCNC(=O)CN2CCN(CC(=O)O)CCN(CC(=O)O)CCN(CC(=O)O)CC2)NC(=O)CCCc2ccc(I)cc2)cc1)C(=O)NCc1ccc(O)cc1", "note": "(single isomer, unassigned) [Compound 153]", "Ki": "< 10"},
      {"smiles": "CCC(=O)NCCNC(=O)/N=C(/N)NCCC[C@@H](NC(=O)C(c1ccccc1)c1ccc(NCCNC(=O)[C@H](N)CCCNC(=O)CN2CCN(CC(=O)O)CCN(CC(=O)O)CCN(CC(=O)O)CC2)cc1)C(=O)NCc1ccc(O)cc1", "note": "(single isomer, unassigned) [Compound 144B]", "Ki": "< 10"},
      {"smiles": "CCC(=O)NCCNC(=O)/N=C(/N)NCCC[C@@H](NC(=O)C(c1ccccc1)c1ccc(NCC(=O)N(C)CCCN(C)CCCN(C)C(=O)CN2CCN(CC(=O)O)CCN(CC(=O)O)CCN(CC(=O)O)CC2)cc1)C(=O)NCc1ccc(O)cc1", "note": "(single isomer, unassigned) [Compound 139B]", "Ki": "< 10"},
      {"smiles": "CCC(=O)NCCNC(=O)/N=C(/N)NCCC[C@@H](NC(=O)C(c1ccccc1)c1cccc(OCCCCNC(=O)CCCCCNC(=O)CN2CCN(CC(=O)O)CCN(CC(=O)O)CCN(CC(=O)O)CC2)c1)C(=O)NCc1c(F)cc(O)cc1F", "note": "(single isomer, unassigned) [Compound 161A]", "Ki": "< 10"}
    ]},
    {"biological_target": "T1, hNPY1R", "assay": "NPY1R binding assay: SK-N-MC membranes, [125I]-Peptide YY (human) competition", "details": "read-out: hNPY.R binding Ki* ††", "units": {"Ki": "nM"}, "values": [
      {"smiles": "CCC(=O)NCCNC(=O)/N=C(/N)NCCC[C@@H](NC(=O)C(c1ccccc1)c1ccc(OCCCNc2c(NCCNC(=O)CN3CCN(CC(=O)O)CCN(CC(=O)O)CCN(CC(=O)O)CC3)c(=O)c2=O)cc1)C(=O)NCc1ccc(O)cc1", "note": "(single isomer, unassigned) [Compound 136A]", "Ki": "< 10"}
    ]}
  ]
}
